Assay results: patent US20260055065A1, “PYRIDAZINONE COMPOUNDS WHICH MODULATE MUTANT PROTEINS FOR TREATING RESPIRATORY DISEASES” (The Hospital for Sick Children, priority 2022, published 2026)
pEC50: −log10 of the molar value.

Experiments:
Type in all cases: cell-based
[1] = molecular target: T1, F508del-CFTR (Homo sapiens, UniProt P13569, DEL508-508); experiment: Dose response, potentiation of forskolin-activated F508del-CFTR chloride channel activity in CFBE41o- cells (fluorescence membrane potential assay); details: low temperature (27 degrees Celsius) correction, read-out: potency in potentiating cyclic AMP dependent F508del-CFTR chloride channel activity
T1 construct: F508del-CFTR was endogenously expressed in CFBE41o^− cells; endogenous in cells; host or cells: CFBE41o-
Protocol: In these studies, F508del-CFTR was endogenously expressed in CFBE41o^− cells and it's trafficking defect corrected by low temperature (27 degrees Celsius) incubation. The fold increase in cyclic AMP dependent F508del-CFTR mediated chloride channel activity induced by potentiator treatment was determined using the fluorescence-based, membrane potential difference assay previously described.

[2] = molecular target: Wt-CFTR (Homo sapiens, UniProt P13569); experiment: Calu-3 CSE experiments, FLiPR assay of CFTR channel activity; design: this airway epithelial cell line endogenously expresses this channel; endogenous in cells; host or cells: Calu-3
Protocol: Addition of CFTR-inhibitor indicated with grey arrow. Superimposed, we show the effect of acute co-application of VX-770 (open squares) or SK-POT (open triangles) with forskolin. […] Only SK-POT rescued CFTR channel function in the presence of cigarette smoke extract.
Calu-3 cells were cultured using EMEM (Wisent) supplemented with FBS at 20% (v/v) and 1× Penicillin/Streptomycin (Wisent). Calu-3 cells were seeded on clear-bottom, black-walled 96 well plates (Costar, Corning) at a density of 10,000 cells/well and cultured for 2 days post-confluence. Cells then received the chronic treatment of toxin and potentiator. The toxin treatment consisted of either cigarette smoke extract (CSE) prepared in 100% DMSO (University of Alabama at Birmingham), dissolved at a concentration of 2% (v/v) in Calu-3 medium, with an equivalent concentration of DMSO alone serving as the toxin control. The chronic drug treatment was co-applied with the toxin, which included either VX-770 or Compound 11 (both prepared in 100% DMSO) dissolved in Calu-3 medium at a final concentration of 1 μm. VX-770 (Vertex) and Compound 11 solutions were prepared from 1 mM stocks. The control for the drug treatment was the vehicle, DMSO at an equivalent volume. Combining the two toxin treatments and three drug treatments, a total of six treatments were applied chronically to 4 wells per condition, for a total of 24 wells receiving chronic treatment.
Cells were cultured for an additional 24 hours after chronic treatment application, after which cells were incubated with FLiPR assay buffer. The FLiPR assay buffer consisted of blue FLiPR dye (Molecular Devices) dissolved at a concentration of 0.5 mg/mL in chloride-free buffer (150 mM NMDG, 150 mM gluconolactone, 3 mM potassium gluconate, 300 mOsm and pH 7.38). Buffer was incubated with cells at 37 degrees and 5% CO2 for 35 minutes. CFTR function was assessed by measuring changes in fluorescence activity after acute CFTR channel activation by addition of cAMP agonist forskolin dissolved in chloride-free buffer to a final concentration 1 μm, using the SpectraMax i3x multimodal plate reader. Fluorescence readings (excitation 530 nm; emission 560 nm) for each well were taken at 30-second intervals for 5 minutes (baseline) or 10 minutes (activation). CFTR activity was then terminated by addition of CFTR-inhibitor 172 dissolved in chloride-free buffer to a concentration of 10 μm, to further verify the specificity of the response to CFTR activity. Fluorescence changes were recorded at 30-second intervals for another 10 minutes. In analysis, all fluorescence values were normalized per well to the final reading prior to the addition of forskolin and expressed as a percentage of this reading.

[3] = test system: primary differentiated human bronchial epithelial cultures; experiment: Bead tracking assay of mucociliary movement, primary bronchial epithelial cultures exposed to cigarette smoke extract
Protocol: Compound 11 was tested in an in-vitro model of COPD. In this model, primary differentiated human bronchial epithelial cultures were exposed to cigarette smoke extract (4,5). Exposure to cigarette smoke extract (CSE) led to mucostasis and slowed mucociliary movement (FIG. 1(A) and (B)). […] Changes in mucociliary movement were determined as in our previous publication (7), i.e., by tracking the speed of fluorescent beads added to the surface of the airway cultures. The relative rescue effect of Compound 11 compared favourably relative to the competitor, the FDA approved CFTR potentiator marketed as Ivacaftor (VX-770).
Mature bronchial epithelial cultures, seeded on 24-well transwell inserts, derived from non-smoker donors of variable ages were received from the University of Iowa and cultured at air-liquid interface (ALI) using UltraG medium. A total of 6 inserts per donor were cultured, and all inserts from a single donor were selected to receive chronic drug and toxin treatment. Ahead of chronic treatment, cultures were subject to mucomist to reduce the volume and viscosity of the mucous layer ahead of imaging. Cultures were first washed twice with 200 uL HBSS (Wisent) applied apically to the transwell, each wash for 10 minutes at 37 degrees and 5% CO2. Cells were then incubated with 10 μM N-acetyl-cysteine (source?) dissolved in HBSS (Wisent) for 30 minutes, followed by a final HBSS wash as described previously. The toxin treatment consisted of either cigarette smoke extract (CSE) prepared in 100% DMSO (University of Alabama at Birmingham), dissolved at a concentration of 2% (v/v) in UltraG medium, with an equivalent concentration of DMSO alone serving as a control. The chronic drug treatment was co-applied with the toxin treatment, which included either VX-770 (Vertex) or SK-POT, aka Compound 11 (both prepared in 100% DMSO) dissolved in UltraG medium at a final concentration of 1 μm. There were a total of 6 chronic treatments, with each of the 6 inserts per donor receiving a different chronic treatment. Bronchial epithelia were incubated with the chronic treatment, applied apically, for 24 hours at 37 degrees C. and 5% CO2. After 24 hours, green fluorescent microspheres (brand?) dissolved in HBSS at a concentration of 0.05% (v/v) were applied apically; cultures were incubated with the microspheres for 45 minutes. The toxin and potentiator treatments were carried forth into the microsphere solution.
Inserts were then imaged at room temperature by epifluorescence microscopy (Zeiss or Olympus). The basic replicate of the assay consists of a 5-second video captured in the green channel and 40-60 frames per second; Z-position was adjusted ahead of each video to ensure beads in the airway surface liquid stratum immediately above the cilia were being captured. 5 videos were captured per insert/conditions, representing the centre and 4 corners of the insert. 2 sets of 5 videos were captured per insert/condition: one at baseline, and one 20 minutes following CFTR stimulation by forskolin at a concentration of 10 μM. Inserts were incubated at room temperature after forskolin addition.
Videos were captured using Volocity software and exported as one TIF file per frame. Frames were then re-compiled into complete videos using Arivis 4D software. Using an algorithm as previously described in Wu et al. 2017, microspheres were highlighted by adjusting two parameters: fluorescence intensity and diameter. […]

[4] = molecular target: T2, wild-type human CFTR (Homo sapiens, UniProt P13569); experiment: Cell-attached patch clamp of CFTR channel potentiation in HEK-293 cells; details: one active channel with forskolin alone
T2 construct: host or cells: HEK-293
T2 sequence (P13569 whole entry): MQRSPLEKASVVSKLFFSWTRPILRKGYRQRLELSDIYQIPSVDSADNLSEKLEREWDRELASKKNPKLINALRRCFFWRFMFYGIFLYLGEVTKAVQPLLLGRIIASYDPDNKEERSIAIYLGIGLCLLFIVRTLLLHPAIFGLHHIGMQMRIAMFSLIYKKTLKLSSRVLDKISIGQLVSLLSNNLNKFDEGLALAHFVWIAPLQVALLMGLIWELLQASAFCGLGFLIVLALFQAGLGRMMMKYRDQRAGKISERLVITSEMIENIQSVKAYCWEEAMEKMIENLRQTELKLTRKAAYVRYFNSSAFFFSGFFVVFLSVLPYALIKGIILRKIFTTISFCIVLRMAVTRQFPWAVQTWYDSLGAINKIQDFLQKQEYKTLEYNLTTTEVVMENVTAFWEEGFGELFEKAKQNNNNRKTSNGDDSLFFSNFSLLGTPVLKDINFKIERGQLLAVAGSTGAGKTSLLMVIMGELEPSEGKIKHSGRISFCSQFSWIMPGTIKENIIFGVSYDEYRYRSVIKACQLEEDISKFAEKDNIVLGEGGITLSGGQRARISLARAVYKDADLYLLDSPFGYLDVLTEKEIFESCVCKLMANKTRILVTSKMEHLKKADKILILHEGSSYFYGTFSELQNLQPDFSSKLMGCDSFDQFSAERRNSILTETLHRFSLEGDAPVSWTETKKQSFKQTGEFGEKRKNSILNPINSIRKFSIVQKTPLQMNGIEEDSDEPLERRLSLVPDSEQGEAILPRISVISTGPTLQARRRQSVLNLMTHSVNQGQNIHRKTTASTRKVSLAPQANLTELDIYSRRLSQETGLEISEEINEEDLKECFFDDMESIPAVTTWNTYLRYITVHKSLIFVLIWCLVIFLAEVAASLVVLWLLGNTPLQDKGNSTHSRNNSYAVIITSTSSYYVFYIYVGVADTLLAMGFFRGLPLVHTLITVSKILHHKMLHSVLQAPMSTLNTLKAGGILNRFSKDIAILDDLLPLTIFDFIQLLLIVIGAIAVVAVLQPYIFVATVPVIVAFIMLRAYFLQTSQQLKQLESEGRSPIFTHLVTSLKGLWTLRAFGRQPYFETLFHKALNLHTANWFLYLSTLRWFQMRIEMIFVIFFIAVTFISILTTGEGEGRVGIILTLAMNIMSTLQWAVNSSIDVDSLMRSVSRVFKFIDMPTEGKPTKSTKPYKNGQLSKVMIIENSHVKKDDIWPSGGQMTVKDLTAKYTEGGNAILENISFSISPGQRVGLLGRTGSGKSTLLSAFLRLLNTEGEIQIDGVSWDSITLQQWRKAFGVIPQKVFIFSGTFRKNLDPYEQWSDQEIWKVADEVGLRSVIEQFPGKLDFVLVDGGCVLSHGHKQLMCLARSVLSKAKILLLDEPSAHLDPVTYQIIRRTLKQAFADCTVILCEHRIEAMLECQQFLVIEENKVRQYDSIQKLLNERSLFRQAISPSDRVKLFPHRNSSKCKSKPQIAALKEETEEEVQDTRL
Protocol: HEK-293 cells stably expressing wild-type human CFTR in patch clamp studies of single channel activity were used. […] CFTR Cl^− channels were recorded in cell-attached membrane patches using an Axopatch 200A patch clamp amplifier and pCLAMP software (both from Molecular Devices, Sunnyvale, CA). The pipette and bath (extracellular) solutions contained 140 mm N-methyl-d-glucamine, 140 mm aspartic acid, 5 mm CaCl2, 2 mm MgSO4, and 10 mm TES, adjusted to pH 7.3 with Tris ([Cl^−]: 10 mM). The bath was maintained at room temperature.
In order to activate Wt-CFTR channels, 10 uM forskolin was added to the bath. […] To determine channel number, we used the maximum number of simultaneous channel openings observed during the experimental procedure. Single channel recordings were filtered and digitized data as described previously. To measure single-channel current amplitude, Gaussian distributions were fitted to current amplitude histograms. To measure Po, lists of open and closed times were created using a half-amplitude crossing criterion for event detection, and dwell time histograms were constructed and fitted. For the purpose of illustration, single-channel records were filtered at 500 Hz.

Chain of Wt-CFTR (P13569 whole entry): as above
T1 sequence (P13569 with tags, fused parts or gaps DEL508-508): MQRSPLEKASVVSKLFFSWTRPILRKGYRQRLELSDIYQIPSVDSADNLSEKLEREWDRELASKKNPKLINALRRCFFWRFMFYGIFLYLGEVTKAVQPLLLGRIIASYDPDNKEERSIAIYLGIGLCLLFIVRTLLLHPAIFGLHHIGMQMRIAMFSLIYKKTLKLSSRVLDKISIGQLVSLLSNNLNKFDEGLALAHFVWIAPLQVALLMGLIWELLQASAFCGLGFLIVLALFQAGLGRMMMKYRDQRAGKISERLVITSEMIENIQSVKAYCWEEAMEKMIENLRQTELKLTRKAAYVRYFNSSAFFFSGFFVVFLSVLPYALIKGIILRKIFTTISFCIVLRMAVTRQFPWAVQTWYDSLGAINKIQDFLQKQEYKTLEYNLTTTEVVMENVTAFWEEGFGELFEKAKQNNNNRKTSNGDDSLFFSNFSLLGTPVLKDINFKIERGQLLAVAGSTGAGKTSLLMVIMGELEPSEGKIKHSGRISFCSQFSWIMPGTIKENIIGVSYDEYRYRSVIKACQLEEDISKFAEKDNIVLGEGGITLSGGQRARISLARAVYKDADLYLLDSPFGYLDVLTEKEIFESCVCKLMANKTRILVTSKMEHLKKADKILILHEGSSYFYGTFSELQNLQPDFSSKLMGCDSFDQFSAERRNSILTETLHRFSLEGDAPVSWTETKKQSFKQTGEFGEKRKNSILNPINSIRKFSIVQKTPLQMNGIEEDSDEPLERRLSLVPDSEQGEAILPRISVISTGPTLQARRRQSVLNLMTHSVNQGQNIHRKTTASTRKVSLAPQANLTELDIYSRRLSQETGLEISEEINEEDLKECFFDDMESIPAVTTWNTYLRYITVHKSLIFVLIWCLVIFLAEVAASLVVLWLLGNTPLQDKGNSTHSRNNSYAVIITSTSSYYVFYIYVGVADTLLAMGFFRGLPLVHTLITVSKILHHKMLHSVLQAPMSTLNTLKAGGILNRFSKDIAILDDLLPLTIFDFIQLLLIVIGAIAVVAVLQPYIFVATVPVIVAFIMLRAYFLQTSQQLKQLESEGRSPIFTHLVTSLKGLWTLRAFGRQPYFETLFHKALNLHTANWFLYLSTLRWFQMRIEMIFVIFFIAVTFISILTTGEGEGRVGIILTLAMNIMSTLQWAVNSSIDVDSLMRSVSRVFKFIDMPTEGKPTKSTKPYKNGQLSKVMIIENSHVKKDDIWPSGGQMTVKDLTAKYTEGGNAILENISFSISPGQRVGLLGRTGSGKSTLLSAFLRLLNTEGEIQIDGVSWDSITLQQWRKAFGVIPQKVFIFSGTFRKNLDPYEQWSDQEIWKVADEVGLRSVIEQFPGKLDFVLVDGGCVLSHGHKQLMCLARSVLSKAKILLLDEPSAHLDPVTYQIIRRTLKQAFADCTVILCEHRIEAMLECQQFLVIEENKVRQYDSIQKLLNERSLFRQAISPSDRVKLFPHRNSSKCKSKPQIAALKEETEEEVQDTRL

Molecule | pEC50 [1] | forskolin-activated CFTR channel activity after CSE exposure ([2]; Calu-3, CSE 2%, compounds 1 uM) | EC90 ([2]; Calu-3, CFTR channel potentiation, read-out: approximate EC90) | mucostasis / bead velocity in CSE-treated cultures ([3]; CSE 2%, compound 1 μM for 24 hours, forskolin 10 μM) | bead velocity under control conditions ([3]; no CSE, compound added with vehicle for 24 hours) | number of active channels [4]
CC(C)(C)c1cc(C(C)(C)C)c(NC(=O)c2c[nH]c3ccccc3c2=O)cc1O [VX-770, reference compound] | 7.49 | only (SK-POT) treatment led to a significant increase | ~1000 nM | a significant increase in the forskolin induced response in CSE-treated cultures after VX-770 addition was not observed | Neither VX-770 nor Compound 11 had any impact on bead velocity | 
CFTRinh-172 |  |  |  |  |  | significant decrease in the number of active channels
